Measured values taken from publication PMC11881035, “^68Ga-Labeled Glycopeptides as Effective Tools for Liver Function Imaging” (Molecular Pharmaceutics, 2025).
Read-outs that look alike come from different tables or passages of the source. Where a SMILES comes first, the peptide text is derived from it. The star is where a group is joined. X1 = O=C(CCCCc1cn([C@@H]2O[C@H](CO)[C@H](O)[C@H](O)[C@H]2O)nn1)*; NODAGA = O=C(O)CN1CCN(CC(=O)O)CCN(C(CCC(=O)*)C(=O)O)CC1; GABA = NCCCC(=O)O

Key:
[1] = complex stability in human blood serum; assay type: in vitro ADME
Method: (§1) The ^68Ge/^68Ga generator, devices for analytical HPLC, semipreparative HPLC, mass spectrometry, radio-thin layer chromatography, gamma counter and animal models for biodistribution and imaging studies including the image reconstruction procedures were the same as described before.[22] Stability assays in PBS and human blood serum, protein binding as well as determination of log D values followed established protocols.[25] Binding affinities (IC50) of selected ligands were determined in an isolated receptor-based assay according to a previously published procedure with minor modifications.[22] Dilutions of nonradioactive complexes were made with PBS + 0.1% BSA (10^–5–10^–12 M). Preparation of [^125I]I-Asialoorosomucoid which serves as the radioactive standard ligand has been published recently.[21]

ASGR = molecular target: T1, ASGR (Mus musculus, UniProt P24721+P34927); test: blocking experiment, coinjection of N-acetylgalactosamine, biodistribution in BALB/c mice; conditions: in vivo, 30 min p.i., 27.7 μmol N-acetylgalactosamine
T1 construct: from tissue; host or cells: liver and other organs of living healthy female BALB/c mice
T1 sequence (P34927 1-284): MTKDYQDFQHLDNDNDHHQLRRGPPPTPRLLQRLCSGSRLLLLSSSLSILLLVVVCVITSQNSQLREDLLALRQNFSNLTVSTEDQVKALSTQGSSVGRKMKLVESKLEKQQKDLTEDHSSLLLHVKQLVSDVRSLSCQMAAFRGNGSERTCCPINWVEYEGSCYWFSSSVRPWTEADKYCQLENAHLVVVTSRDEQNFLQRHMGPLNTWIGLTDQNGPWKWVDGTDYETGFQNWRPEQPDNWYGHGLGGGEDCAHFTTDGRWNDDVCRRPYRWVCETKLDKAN
T1 sequence (P24721 1-301): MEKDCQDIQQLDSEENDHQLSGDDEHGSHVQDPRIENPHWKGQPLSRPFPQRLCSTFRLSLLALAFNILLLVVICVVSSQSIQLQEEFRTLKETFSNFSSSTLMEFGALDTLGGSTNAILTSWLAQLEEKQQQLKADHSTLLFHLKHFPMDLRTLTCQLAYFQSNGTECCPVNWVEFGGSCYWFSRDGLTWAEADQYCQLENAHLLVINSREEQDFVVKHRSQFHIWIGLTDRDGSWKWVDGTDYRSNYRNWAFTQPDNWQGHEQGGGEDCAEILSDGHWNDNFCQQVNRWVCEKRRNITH
Method: Less liver uptake was found for [^68Ga]Ga-NODAGA-HexaLysan (55.5 ± 7.4% ID/g, 30 min p.i.) and least for [^68Ga]Ga-NODAGA-TriLysan (9.4 ± 2.0% ID/g, 30 min p.i.). […] However, an increasing activity accumulation in the intestine was found for [^68Ga]Ga-NODAGA-NonaLysan, [^68Ga]Ga-NODAGA-GalNAc-Nonalysan, and [^68Ga]Ga-NODAGA-HexaLysan over time. Nevertheless, liver-to-organ ratios were highest for [^68Ga]Ga-NODAGA-NonaLysan (Figure 3). Lower liver-to-organ ratios were found for the GalNAc derivative due to higher off-target binding in the pancreas, stomach, heart, muscle, lung, and femur. […] Coinjection of both nonamers with a large excess of N-acetylgalactosamine led to a statistically significant reduction of liver uptake indicating specific interactions of the tracers with their target (Figure 4). As a consequence of the reduced liver uptake also a reduction of the intestinal uptake was observed.
Figure 4 Data (% ID/g) from the blocking experiments using ^68Ga-labeled NODAGA-GalNAc-NonaLysan and NODAGA-NonaLysan in healthy BALB/c mice at 30 min p.i. Blocking was carried out using 27.7 μmol of N-acetylgalactosamine (**p ≤ 0.01; *p ≤ 0.05).

log D determination = assay type: physicochemical; conditions: read-out: log D
Method: as §1

[2] = protein binding in human serum; assay type: in vitro ADME; conditions: for fraction unbound: human, serum, read-out: protein binding (%) (converted)
Method: as §1

complex stability in PBS = assay type: physicochemical
Method: as §1

[3] = biodistribution in healthy BALB/c mice; conditions: mouse, in vivo; for tissue uptake at 10 min: 10 min p.i.; for tissue uptake at 0.5 h: 30 min p.i.; for tissue uptake at 1 h: 60 min p.i.
Method: as §1
Animal experiments were performed in accordance with the Austrian animal experiments law (BGBl. I Nr. 114/2012) and the institution’s animal welfare standards as approved by the Austrian Federal Ministry of Education, Science and Research (BMBWF, 2022–0.311.708). Imaging experiments were conducted at Werner Siemens Imaging Center (Tübingen, Germany) according to the German animal welfare act as approved by the local authorities (R5/19 G, R09/21 G).
Figure 2 Biodistribution data (% ID/g) of ^68Ga-labeled NODAGA-GalNAc-NonaLysan, NODAGA-NonaLysan, NODAGA-HexaLysan, and NODAGA-TriLysan in healthy BALB/c mice at 10, 30, and 60 min p.i. (100 pmol, 1 MBq).

SMILES: NC(=O)CNC(=O)CNC(=O)[C@H](CCCCNC(=O)CCCCc1cn([C@@H]2O[C@H](CO)[C@H](O)[C@H](O)[C@H]2O)nn1)NC(=O)CNC(=O)CNC(=O)[C@H](CCCCNC(=O)CCCCc1cn([C@@H]2O[C@H](CO)[C@H](O)[C@H](O)[C@H]2O)nn1)NC(=O)CNC(=O)CNC(=O)[C@H](CCCCNC(=O)CCCCc1cn([C@@H]2O[C@H](CO)[C@H](O)[C@H](O)[C@H]2O)nn1)NC(=O)CNC(=O)CNC(=O)[C@H](CCCCNC(=O)CCCCc1cn([C@@H]2O[C@H](CO)[C@H](O)[C@H](O)[C@H]2O)nn1)NC(=O)CNC(=O)CNC(=O)[C@H](CCCCNC(=O)CCCCc1cn([C@@H]2O[C@H](CO)[C@H](O)[C@H](O)[C@H]2O)nn1)NC(=O)CNC(=O)CNC(=O)[C@H](CCCCNC(=O)CCCCc1cn([C@@H]2O[C@H](CO)[C@H](O)[C@H](O)[C@H]2O)nn1)NC(=O)CNC(=O)CNC(=O)[C@H](CCCCNC(=O)CCCCc1cn([C@@H]2O[C@H](CO)[C@H](O)[C@H](O)[C@H]2O)nn1)NC(=O)CNC(=O)CNC(=O)[C@H](CCCCNC(=O)CCCCc1cn([C@@H]2O[C@H](CO)[C@H](O)[C@H](O)[C@H]2O)nn1)NC(=O)CNC(=O)CNC(=O)[C@H](CCCCNC(=O)CCCCc1cn([C@@H]2O[C@H](CO)[C@H](O)[C@H](O)[C@H]2O)nn1)NC(=O)CCCNC(=O)CCC(C(=O)O)N1CCN(CC(=O)O)CCN(CC(=O)O)CC1 (stereo partly shown) [[^68Ga]Ga-NODAGA-NonaLysan, metal not drawn] ({NODAGA-GABA}-K(X1)GGK(X1)GGK(X1)GGK(X1)GGK(X1)GGK(X1)GGK(X1)GGK(X1)GGK(X1)GG-NH2)
- complex stability in serum (% intact ligand) ([1]; 2 min): 99.5 ± 0.1%
- complex stability in serum (% intact ligand) ([1]; 30 min): 99.5 ± 0.1%
- complex stability in serum (% intact ligand) ([1]; 60 min): 99.5 ± 0.1%
- complex stability in serum (% intact ligand) ([1]; 120 min): 99.6%
- tissue uptake at 0.5 h (ASGR; read-out: Blood uptake): 0.3 ± 0.2 %ID/g
- tissue uptake at 0.5 h (ASGR; read-out: Femur uptake): 0.2 ± 0.01 %ID/g
- tissue uptake at 0.5 h (ASGR; read-out: Heart uptake): 0.3 ± 0.03 %ID/g
- tissue uptake at 0.5 h (ASGR; read-out: Intestine uptake): 2.2 ± 0.2 %ID/g
- tissue uptake at 0.5 h (ASGR; read-out: Kidneys uptake): 2 ± 0.8 %ID/g
- tissue uptake at 0.5 h (ASGR; read-out: Liver uptake): 48 ± 1.1 %ID/g
- tissue uptake at 0.5 h (ASGR; read-out: Lung uptake): 0.6 ± 0.1 %ID/g
- tissue uptake at 0.5 h (ASGR; read-out: Muscle uptake): 0.4 ± 0.04 %ID/g
- tissue uptake at 0.5 h (ASGR; read-out: Pancreas uptake): 0.5 ± 0.1 %ID/g
- tissue uptake at 0.5 h (ASGR; read-out: Spleen uptake): 0.3 ± 0.2 %ID/g
- tissue uptake at 0.5 h (ASGR; read-out: Stomach uptake): 0.9 ± 0.3 %ID/g
- logD (log D determination): -4.06
- protein binding (%) ([2]; 120 min): 21.5 ± 3.4%
- fraction unbound ([2]; 2 min): 0.847
- fraction unbound ([2]; 30 min): 0.717
- fraction unbound ([2]; 60 min): 0.737
- fraction unbound ([2]; 120 min): 0.813
- complex stability in PBS (% intact ligand) (complex stability in PBS; 2 min): 99.6%
- complex stability in PBS (% intact ligand) (complex stability in PBS; 30 min): 99.4%
- complex stability in PBS (% intact ligand) (complex stability in PBS; 60 min): 99.3%
- complex stability in PBS (% intact ligand) (complex stability in PBS; 120 min): 99.3%
- tissue uptake at 10 min ([3]; read-out: Blood uptake): 0.4 ± 0.03 %ID/g
- tissue uptake at 10 min ([3]; read-out: Femur uptake): 0.3 ± 0.02 %ID/g
- tissue uptake at 10 min ([3]; read-out: Heart uptake): 0.4 ± 0.04 %ID/g
- tissue uptake at 10 min ([3]; read-out: Intestine uptake): 0.8 ± 0.2 %ID/g
- tissue uptake at 10 min ([3]; read-out: Kidneys uptake): 1.2 ± 0.1 %ID/g
- tissue uptake at 10 min ([3]; read-out: Liver uptake): 71.2 ± 0.4 %ID/g
- tissue uptake at 10 min ([3]; read-out: Lung uptake): 0.9 ± 0.1 %ID/g
- tissue uptake at 10 min ([3]; read-out: Muscle uptake): 0.6 ± 0.1 %ID/g
- tissue uptake at 10 min ([3]; read-out: Pancreas uptake): 0.8 ± 0.1 %ID/g
- tissue uptake at 10 min ([3]; read-out: Spleen uptake): 0.6 ± 0.2 %ID/g
- tissue uptake at 10 min ([3]; read-out: Stomach uptake): 0.7 ± 0.2 %ID/g
- tissue uptake at 0.5 h ([3]; read-out: Blood uptake): 0.2 ± 0.04 %ID/g
- tissue uptake at 0.5 h ([3]; read-out: Femur uptake): 0.3 ± 0.1 %ID/g
- tissue uptake at 0.5 h ([3]; read-out: Heart uptake): 0.4 ± 0.04 %ID/g
- tissue uptake at 0.5 h ([3]; read-out: Intestine uptake): 5.6 ± 0.2 %ID/g
- tissue uptake at 0.5 h ([3]; read-out: Kidneys uptake): 0.8 ± 0.03 %ID/g
- tissue uptake at 0.5 h ([3]; read-out: Liver uptake): 79.6 ± 8 %ID/g
- tissue uptake at 0.5 h ([3]; read-out: Lung uptake): 0.7 ± 0.1 %ID/g
- tissue uptake at 0.5 h ([3]; read-out: Muscle uptake): 0.7 ± 0.03 %ID/g
- tissue uptake at 0.5 h ([3]; read-out: Pancreas uptake): 0.9 ± 0.1 %ID/g
- tissue uptake at 0.5 h ([3]; read-out: Spleen uptake): 0.2 ± 0.03 %ID/g
- tissue uptake at 0.5 h ([3]; read-out: Stomach uptake): 1.2 ± 0.4 %ID/g
- tissue uptake at 1 h ([3]; read-out: Blood uptake): 0.2 ± 0.1 %ID/g
- tissue uptake at 1 h ([3]; read-out: Femur uptake): 0.2 ± 0.01 %ID/g
- tissue uptake at 1 h ([3]; read-out: Heart uptake): 0.5 ± 0.1 %ID/g
- tissue uptake at 1 h ([3]; read-out: Intestine uptake): 7.9 ± 0.5 %ID/g
- tissue uptake at 1 h ([3]; read-out: Kidneys uptake): 1 ± 0.2 %ID/g
- tissue uptake at 1 h ([3]; read-out: Liver uptake): 69.6 ± 1 %ID/g
- tissue uptake at 1 h ([3]; read-out: Lung uptake): 0.9 ± 0.1 %ID/g
- tissue uptake at 1 h ([3]; read-out: Muscle uptake): 0.6 ± 0.1 %ID/g
- tissue uptake at 1 h ([3]; read-out: Pancreas uptake): 1.2 ± 0.2 %ID/g
- tissue uptake at 1 h ([3]; read-out: Spleen uptake): 0.5 ± 0.03 %ID/g
- tissue uptake at 1 h ([3]; read-out: Stomach uptake): 1.8 ± 1 %ID/g
